Results published in a melting point compilation (Tetko et al.; mined from patent text by program, amines drawn as free bases though some values may be those of a salt).

Point of comparison: CC(C)COc1ccc(Br)cc1OCC(C)C, melting point 47 °C. Against it:
- CC(C)c1c(C=O)c(-c2ccccc2)c2c3ccccc3cnn12 — higher, 163 to 164 °C
- CCCCCCCCCCCCC1=C(OCC)C(=O)c2ccccc2C1=O — lower, 36 to 38 °C
- NC(=S)c1cc2c(cn1)[nH]c1ccccc12 — higher, 274 to 276 °C
- COC(=O)c1ccc(/C=C(\C)c2ccc3c(c2)N(C)CCN3C)cc1 — higher, 91 to 93 °C
- CC(O)(c1ccc(Oc2ccccc2)cc1)c1cccnc1 (stereo not given) — higher, 130 to 132 °C
- CCOc1c(C)ccc2c1c1cc(Br)ccc1n2C(=O)OC(C)(C)C — higher, 137 °C
- CCOc1cc2c(cc1OCC)-c1c(OCC)c(OCC)cc3c1C(C2)N(C)CC3O (stereo not given) — higher, 140 to 142 °C
- N#Cc1ccc(OCc2ccc3c(c2)OCO3)cc1F — higher, 139 to 140 °C
- CSC(=N)NC(c1ccccc1)c1ccc(C)cc1 (stereo not given) — higher, 130 to 132 °C
- O=[N+]([O-])c1oc2ccc(CBr)cc2c1-c1ccccc1 — higher, 171 to 180 °C
- CCOC(=O)C1=C(C)NC(CSC(=N)N)=C(C(=O)OCC)C1c1cccc([N+](=O)[O-])c1 (single isomer, unassigned; (+)) — higher, 124 to 126 °C
- COc1ccc(-n2nc(Cl)cc2-c2ccc(OCCNC(N)=O)cc2)cc1 — higher, 140 to 142 °C
- COc1ccc(/C=C(\C#N)c2ccsc2)cc1OC1CCCC1 — higher, 83 to 84 °C
- NS(=O)(=O)c1cccc(-c2cc(-c3nc(-c4ccc(F)cc4)cc(C(F)(F)F)n3)ccn2)c1 — higher, 240 °C
- CC(=O)Nc1ncc2ncn([C@@H]3C[C@H](OC(C)=O)[C@@H](O)[C@H]3O)c2n1 (racemic) — higher, 222 to 223 °C
- CCCCCCOc1ccc(-c2nccc(-c3cccc(F)c3F)n2)cn1 — higher, 110 °C
- O=S(=O)(NCC(O)(Cn1cncn1)c1ccc(Cl)cc1Cl)c1ccc(C(F)(F)F)cc1 (stereo not given) — higher, 165 to 166 °C
- ClCc1cccc2nnsc12 — higher, 78 to 80 °C
- C[C@@H](SCCc1nccn1C)[C@](O)(Cn1cncn1)c1ccc(F)cc1F (racemic) — higher, 175 to 176 °C
- C[C@H]1[C@H](N(C)C(=O)C(F)(F)F)CN1c1c(F)cc2c(=O)c(C(=O)O)cn(C3CC3)c2c1F (relative stereo) — higher, 246 to 249 °C
- O=C1CCCc2c(-c3ccncc3)sc(-c3ccncc3)c21 — higher, 157 to 160 °C
- O=C1NS(=O)(=O)CCC1c1ccc([N+](=O)[O-])cc1F (stereo not given) — higher, 218 to 219 °C
- Cc1ccc(NCC2CCN(C3CCOCC3)CC2)c(C(=O)Nc2ccc(Cl)cn2)c1 — higher, 178 to 182 °C
- O=C(O)C1CCN(CC2CN(CC3CCN(c4ccncc4)CC3)C(=O)O2)CC1 (stereo not given) — higher, 94 to 96 °C
- O=C(Nc1nc(-c2ccccc2)nc2[nH]ccc12)[C@@H]1CCCN1 — higher, 236 to 238 °C
- CN1CCC(c2ccccc2)(c2ccccc2)CC1 — higher, 71 to 73 °C
- Cc1ccc(-c2cccc(CCl)n2)cc1 — higher, 94 °C
- CC(C)(Br)C(=O)NCc1ccccc1 — higher, 73.4 to 75.5 °C
- CC(C)N(C1CCCCC1)S(=O)(=O)N[C@@H](Cc1ccc(Oc2nccc3cnccc23)cc1)C(=O)O — higher, 138 °C
- COc1c(N2CC[C@H]([C@@H](C)NC(=O)OC(C)(C)C)C2)c(F)cc2c(=O)n(N)c(=O)n(C3CC3)c12 — higher, 96 to 98 °C
- COc1ccc(-c2csc(Nc3ccncc3)n2)cc1OC — higher, 205 to 207 °C
- Nc1ccc(C(=O)N2Cc3ccccc3Cc3ccccc32)c(Cl)c1 — higher, 158 to 161 °C
- CCOC(=O)c1sc(C)c2nc(OCC)n(Cc3ccc(-c4ccccc4C#N)cc3)c12 — higher, 153 to 155 °C
- O=S(=O)(NCCc1ccc(Nc2nnn[nH]2)cc1)c1ccc(Cl)cc1 — higher, 148 to 150 °C
- COc1ccc(C(CSc2ccccc2N)C(=O)O)cc1OC (stereo not given) — higher, 162 °C
- N#Cc1c(Br)c(Br)n(Cc2ccccc2)c1-c1ccc(C(F)(F)F)cc1 — higher, 145 to 147 °C
- COc1cc(N)ccc1NNC=O — higher, 113 to 116 °C
- CCCCC(CC)Cn1c(=O)nc(N(C)C)n(C)c1=O (stereo not given) — higher, 74 to 75 °C
- CC(=O)NC(CSCc1ccc(-c2nc(-c3ccccc3)cc(-c3ccccc3)n2)cc1)C(=O)O (stereo not given) — higher, 223 to 226 °C
- O=C(NCc1ccc(Cl)cc1)c1cn2c(CO)cc3cc(CC4CCOCC4)cc(c1=O)c32 — higher, 71 to 74 °C
- O=[N+]([O-])c1ccc(Cl)cc1NN1CCOCC1 — higher, 155 °C
- CC1(C)CN=C2C(=O)c3cc(S(=O)(=O)N4CCCC4)ccc3N2C1 — higher, 200 to 201 °C
- CCOC(=O)N1Cc2cc(=O)[nH]nc2C(C)C1 (stereo not given) — higher, 125 to 127 °C
- Cc1cc(-n2ccnc2)c2cccc(OCc3c(Cl)ccc(S(=O)(=O)N4CCCC4C(=O)NCC4CCCCN4C(=O)CC(=O)O)c3Cl)c2n1 (stereo not given) — higher, 130 °C
- O=C(NCc1cccnc1)c1cc2ccnc(Cl)c2[nH]1 — higher, 189 to 191 °C
- CCCCCCC(O)CNCCCCCCNCC(O)CCCCCC (stereo not given) — higher, 124 to 127 °C
- CC(C)N(CCCN1C(=O)C(=O)c2ccccc21)C(C)C — higher, 49 to 50 °C
- CC(C)c1cc(OCCOCc2ccccc2)cc2c1C(=O)N(CCl)S2(=O)=O — higher, 101 to 102 °C
- COCCOCCOc1cc(OC)c(/C=C/C(=O)c2ccc(C(=O)O)cc2)cc1-c1cccs1 — higher, 174 to 175 °C
- CN(C)CCNc1ccc([N+](=O)[O-])c2sc3ccccc3c(=O)c12 — higher, 177 to 179 °C
- COC(=O)c1cc2ccc(C(=O)NC(CO[Si](C)(C)C(C)(C)C)CO[Si](C)(C)C(C)(C)C)cc2[nH]1 — higher, 127 to 129 °C
- CS(=O)(=O)Nc1ccc(NC(=O)C(=O)O)cc1 — higher, > 260 °C
- CCc1cc(NC(=O)N2CCN(c3cc(OC)cc(OC)c3)CC2)c(N2CCNCC2)nc1C — higher, 68 to 70 °C
- CC1CCN(C)c2nc3[nH]c(=O)cc(C(F)(F)F)c3cc21 (stereo not given) — higher, 225 to 230 °C
- Cc1cc(C(F)(C(F)(F)F)C(F)(F)F)ccc1NC1OC(=O)c2cccc(Cl)c21 (stereo not given) — higher, 229 to 231 °C
- COc1cc(OC)cc(C2CC=CCC2=O)c1 (stereo not given) — higher, 60 to 62 °C
- C#CCOc1cc(Oc2cccc(Cl)c2)ncn1 — higher, 71.6 °C
- COc1cccc(-c2n[nH]c(-c3ccccc3COC(C)=O)n2)c1 — higher, 83 to 87 °C
- COC(=O)NC(=O)C(Cc1ccc(OCCc2nc(-c3ccccc3)oc2C)cc1)C(=O)OC (stereo not given) — higher, 120 °C
- COc1ccc(-c2cnc(N)c(Sc3ccc(Cl)cc3)n2)cc1 — higher, 154 to 155 °C
- C=CCOc1ccc(C(=O)CC(C#N)(CCC)c2ccc(OC)cc2OC)cc1 (stereo not given) — higher, 86.1 to 87.1 °C
- Cc1nc2c(-c3cccc(N4CCN(CCO)CC4)c3)cnn2c(N)c1-c1ccc(F)c(F)c1 — higher, 172 to 174 °C
- COC(=O)c1ccc(/C=C(\C)c2ccc3c(c2)OC(C)(C)O3)cc1 — higher, 72 to 74 °C
- CCCCCCC(C)(C)c1cc(O)c2c(c1)oc(=O)c1ccc(OC)cc12 — higher, 149 to 151 °C
- COc1cccc(-c2nc(N)ncc2-c2ccc(=O)[nH]n2)c1 — higher, 134 °C
- O=C(O)c1cn(C2CC2)c2c(F)c(N3CCC(n4cncn4)C3)c(F)cc2c1=O (stereo not given) — higher, 220 to 221 °C
- CC(CN=C1c2cccc3cccc(c23)N1C(c1ccccc1)c1ccccc1)Cn1ccnc1 (stereo not given) — higher, 51 to 56 °C
- [N-]=[N+]=C1C(=O)CCc2ccccc21 — lower, 42.5 to 44.2 °C
- CC(C)NC(=O)OCC(=O)c1ccc(Oc2ccccc2)cc1 — higher, 89 to 90 °C
